Laboratory results published in ChEMBL document CHEMBL4376833, “Influence of Non-natural Cationic Amino Acids on the Biological Activity Profile of Innate Defense Regulator Peptides” (J Med Chem, 2019).
Converted amounts (≈) assume the structure as drawn. The source made the active and inactive calls. Non-standard residues stand in square brackets, D forms with d. Residues, ends and D or L forms follow the SMILES beside them. hArg = N=C(N)NCCCC[C@H](N)C(=O)O; Orn = NCCC[C@H](N)C(=O)O; Dab = NCC[C@H](N)C(=O)O; Dap = NC[C@H](N)C(=O)O

What was measured:
[1] = Stability of compound assessed as bovine trypsin-mediated compound hydrolysis at 10 uM incubated for 30 mins by RP-HPLC analysis; assay type: ADME, Bos taurus; conditions: cattle, read-out: Drug degradation
[2] = Binding affinity to DPC micelle assessed as blue shift with maximum fluorescence emission at 1 uM in TRIS buffer at pH 7.4 measured after 24 hrs by Trp emission fluorescence spectroscopy
Staphylococcus aureus [3] = assay: Antibacterial activity against methicillin-resistant Staphylococcus aureus assessed as alteration in bacterial growth in TSB medium supplemented with 1% glucose at concentration of MIC in MHB medium measured after overnight incubation by CLSI protocol based broth dilution method; assay type: functional, organism-based
PBMC [4] = assay: Antiinflammatory activity against LPS-stimulated human PBMC assessed as suppression of IL1 production at 10 to 40 uM incubated for overnight in presence of Pseudomonas aeruginosa PAO1 LPS by ELISA; assay type: functional, cell-based
Staphylococcus aureus [5] = assay: Antibiofilm activity against methicillin-resistant Staphylococcus aureus assessed as inhibition of biofilm formation incubated for overnight by crystal violet staining based microtiter plate assay; assay type: functional, organism-based
[6] = Binding affinity to SDS micelle assessed as blue shift with maximum emission at wavelength between 339 to 344 nm at 1 uM in TRIS buffer at pH 7.4 measured after 24 hrs by Trp emission fluorescence spectroscopy
PBMC [7] = assay: Immunostimulatory activity in human PBMC assessed as induction of chemokine MCP1 production at 10 to 40 uM incubated for overnight by ELISA; assay type: functional, cell-based
Staphylococcus aureus [8] = assay: Antibacterial activity against methicillin-resistant Staphylococcus aureus assessed as bacterial growth inhibition in TSB medium supplemented with 1% glucose measured after overnight incubation by CLSI protocol based broth dilution method; assay type: functional, organism-based
PBMC [9] = assay: Cytotoxicity against human PBMC assessed as decrease in cell viability at 10 to 40 uM incubated for overnight by LDH assay; assay type: cell-based
[10] = Binding affinity to SDS micelle assessed as increase in fluorescence emission intensity at maximum wavelength at 1 uM in TRIS buffer at pH 7.4 measured after 24 hrs by Trp emission fluorescence spectroscopy relative to TRIS buffer
Staphylococcus aureus [11] = assay: Antibacterial activity against methicillin-resistant Staphylococcus aureus assessed as alteration in bacterial growth in TSB medium supplemented with 1% glucose up to 64 uM measured after overnight incubation by CLSI protocol based broth dilution method; assay type: functional, organism-based
Staphylococcus aureus [12] = assay: Antibacterial activity against methicillin-resistant Staphylococcus aureus assessed as bacterial growth inhibition in MHB medium measured after overnight incubation by CLSI protocol based broth dilution method; assay type: functional
[13] = Binding affinity to DPC micelle assessed as increase in fluorescence emission intensity at maximum wavelength at 1 uM in TRIS buffer at pH 7.4 measured after 24 hrs by Trp emission fluorescence spectroscopy relative to TRIS buffer
Staphylococcus aureus [14] = assay: Antibacterial activity against methicillin-resistant Staphylococcus aureus assessed as alteration in bacterial growth incubated for overnight by microtiter plate based spectrophotometric analysis; assay type: functional, organism-based
Staphylococcus aureus [15] = assay: Antibiofilm activity against methicillin-resistant Staphylococcus aureus assessed as inhibition of biofilm formation by measuring residual biofilm growth incubated for overnight at 10-fold dilution by crystal violet staining based microtiter plate assay relative to control; assay type: functional

Molecule | inhibition (Staphylococcus aureus [5]) | Activity (Staphylococcus aureus [14]) | residual biofilm growth (% of control) (Staphylococcus aureus [15]) | other results
CC[C@H](C)[C@H](NC(=O)[C@H](CN)NC(=O)[C@@H](NC(=O)[C@H](CN)NC(=O)[C@@H](NC(=O)[C@@H](NC(=O)[C@H](CC(C)C)NC(=O)[C@H](CN)NC(=O)[C@@H](N)C(C)C)[C@@H](C)CC)C(C)C)C(C)C)C(=O)N[C@@H](Cc1c[nH]c2ccccc12)C(=O)N[C@@H](CN)C(=O)N[C@@H](CN)C(N)=O (H-V[Dap]LIV[Dap]V[Dap]IW[Dap][Dap]-NH2) | – | – | – | metabolised at 0.5 h, 10 µM [1]: 14%; Activity [2]: Active; Activity (Staphylococcus aureus [3]): Active; Activity (PBMC [4]): inactive; IC50 (Staphylococcus aureus [5]): 19.6 µM; Activity [6]: Active; Activity (PBMC [7]): inactive; inhibition (Staphylococcus aureus [8]): inactive; Activity (PBMC [9]): Non-Toxic; Activity [10]: inactive; Activity (Staphylococcus aureus [11]): Active; MIC (Staphylococcus aureus [12]): 8 µM (≈ 10.2 µg/mL); fold change (FC) [13]: 2 to 6
CC[C@H](C)[C@H](NC(=O)[C@H](CCCNC(=N)N)NC(=O)[C@@H](NC(=O)[C@H](C)NC(=O)[C@@H](NC(=O)[C@@H](NC(=O)[C@H](CC(C)C)NC(=O)[C@H](CCCNC(=N)N)NC(=O)[C@@H](N)CCN)[C@@H](C)CC)C(C)C)C(C)C)C(=O)N[C@@H](Cc1c[nH]c2ccccc12)C(=O)N[C@@H](CCCNC(=N)N)C(=O)N[C@@H](CCCNC(=N)N)C(N)=O (H-[Dab]RLIVAVRIWRR-NH2) | Dose-dependent effect | Active | 14.2% | –
CC[C@H](C)[C@H](NC(=O)[C@H](CCCNC(=N)N)NC(=O)[C@@H](NC(=O)[C@H](C)NC(=O)[C@@H](NC(=O)[C@@H](NC(=O)[C@H](CC(C)C)NC(=O)[C@H](CCCNC(=N)N)NC(=O)[C@@H](N)CN)[C@@H](C)CC)C(C)C)C(C)C)C(=O)N[C@@H](Cc1c[nH]c2ccccc12)C(=O)N[C@@H](CCCNC(=N)N)C(=O)N[C@@H](CCCNC(=N)N)C(N)=O (H-[Dap]RLIVAVRIWRR-NH2) | Dose-dependent effect | Active | 8.5% | –
CC[C@H](C)[C@H](NC(=O)[C@H](CCCNC(=N)N)NC(=O)[C@@H](NC(=O)[C@H](C)NC(=O)[C@@H](NC(=O)[C@@H](NC(=O)[C@H](CC(C)C)NC(=O)[C@H](CCCNC(=N)N)NC(=O)[C@@H](N)CCCN)[C@@H](C)CC)C(C)C)C(C)C)C(=O)N[C@@H](Cc1c[nH]c2ccccc12)C(=O)N[C@@H](CCCNC(=N)N)C(=O)N[C@@H](CCCNC(=N)N)C(N)=O (H-[Orn]RLIVAVRIWRR-NH2) | Dose-dependent effect | Active | 12.2% | –
CC[C@H](C)[C@H](NC(=O)[C@H](CCCNC(=N)N)NC(=O)[C@@H](NC(=O)[C@H](C)NC(=O)[C@@H](NC(=O)[C@@H](NC(=O)[C@H](CC(C)C)NC(=O)[C@H](CCCNC(=N)N)NC(=O)[C@@H](N)CCCCNC(=N)N)[C@@H](C)CC)C(C)C)C(C)C)C(=O)N[C@@H](Cc1c[nH]c2ccccc12)C(=O)N[C@@H](CCCNC(=N)N)C(=O)N[C@@H](CCCNC(=N)N)C(N)=O (H-[hArg]RLIVAVRIWRR-NH2) | Dose-dependent effect | Active | 17.1% | –
H-KRLIVAVRIWRR-NH2 | Dose-dependent effect | Active | 12% | –
H-RRLIVAVRIWRR-NH2 | Dose-dependent effect | Active | 12.2% | –
H-VKLIVAVRIWRR-NH2 | Dose-dependent effect | Active | 7.6% | –
H-VRKIVAVRIWRR-NH2 | Dose-dependent effect | Active | 88.8% | –
H-VRLIKAVRIWRR-NH2 | Dose-dependent effect | Active | 102% | –
H-VRLIRAVRIWRR-NH2 | Dose-dependent effect | Active | 102% | –
H-VRLIVAKRIWRR-NH2 | Dose-dependent effect | Active | 101.6% | –
H-VRLIVARRIWRR-NH2 | Dose-dependent effect | Active | 102.6% | –
H-VRLIVAVKIWRR-NH2 | Dose-dependent effect | Active | 17.9% | –
H-VRLIVAVRIKRR-NH2 | Dose-dependent effect | Active | 44.7% | –
H-VRLIVAVRIRRR-NH2 | Dose-dependent effect | Active | 33.2% | –
H-VRLIVAVRIWKR-NH2 | Dose-dependent effect | Active | 11.8% | –
H-VRLIVAVRIWRK-NH2 | Dose-dependent effect | Active | 6% | –
H-VRLIVAVRKWRR-NH2 | Dose-dependent effect | Active | 95.8% | –
H-VRLIVAVRRWRR-NH2 | Dose-dependent effect | Active | 70.2% | –
H-VRLIVKVRIWRR-NH2 | Dose-dependent effect | Active | 6.1% | metabolised at 0.5 h, 10 µM [1]: 60%; Activity [2]: Active; Activity (Staphylococcus aureus [3]): Active; Activity (PBMC [4]): Active; IC50 (Staphylococcus aureus [5]): 4 to 6 µM; Activity [6]: Active; Activity (PBMC [7]): inactive; inhibition (Staphylococcus aureus [8]): inactive; Activity (PBMC [9]): Non-Toxic; fold change (FC) [10]: 2.5; Activity (Staphylococcus aureus [11]): Active; MIC (Staphylococcus aureus [12]): 4 µM; fold change (FC) [13]: 2 to 6
H-VRLIVRVRIWRR-NH2 | Dose-dependent effect | Active | 9.2% | metabolised at 0.5 h, 10 µM [1]: 90%; Activity [2]: Active; Activity (Staphylococcus aureus [3]): Active; Activity (PBMC [4]): Active; IC50 (Staphylococcus aureus [5]): 4 to 6 µM; Activity [6]: Active; Activity (PBMC [7]): Active; inhibition (Staphylococcus aureus [8]): inactive; Activity (PBMC [9]): Non-Toxic; Activity [10]: inactive; Activity (Staphylococcus aureus [11]): Active; MIC (Staphylococcus aureus [12]): 2 µM; fold change (FC) [13]: 2 to 6
H-VRLKVAVRIWRR-NH2 | Dose-dependent effect | Active | 10.7% | –
H-VRLRVAVRIWRR-NH2 | Dose-dependent effect | Active | 15% | –
H-VRRIVAVRIWRR-NH2 | Dose-dependent effect | Active | 83.7% | –
